Assay [1] has as its system mutant du sarcome de Crocker 180 TG. Briefly: Antitumour activity in mice grafted intraperitoneally with ascitic sarcoma (nine experiments, figures 1 to 9). Format: in vivo, souris Swiss. The method, then:
La tumeur utilisée dans les expériences qui suivent est un mutant du sarcome de Crocker 180 TG qui résiste au traitement par les dérivés puriques.
Les animaux d'expériences sont toujours des souris Swiss de l'élevage susmentionné.
On leur inocule le sarcome par voie intrapéritonéale en utilisant une suspension de 10^6 cellules/0,5 ml.. La quantité inoculée est de 0,5 ml.
Les expériences ont été réalisées en utilisant : • - le butyrate d'arginine ou de lysine, • - l'interféron, • - le corynébacterium parvum (ou CP) de souche Mérieux.
Le butyrate d'arginine a été mis en oeuvre sous la forme et en quantité analogue à ce qui est indiqué plus haut pour l'activité antivirale.
Le CP est administré dans les expériences qui suivent sous la forme d'une dose unique appliquée au moment de la greffe ou trois jours après et se présentant sous la forme d'ampoules de 2 ml comprenant 4 mg en poids sec de germes tués par le formol et la chaleur; on injecte 0,1 ml de cette substance à la souris par voie intrapéritonéale.
On a procédé à neuf expériences indépendantes portant chacune sur plusieurs groupes de 15 animaux.
Dans la première de ces expériences (groupe témoin), on a greffé aux animaux la tumeur seule.
Dans les deuxième et troisième expériences, le butyrate d'amino-acide basique a été appliqué par voie intrapéritonéale à raison de 0,5 ml d'une solution 50 fois millimolaire par souris (c'est-à-dire à raison de respectivement 0,28 mg et 0,24 mg par g de souris), trois fois par semaine (à 48 heures d'intervalle) pendant trois semaines.
Dans la quatrième expérience, on a appliqué l'interféron à raison de 20.000 à 50.000 U.I. sous un volume de 0,5 ml administré à l'animal trois fois par semaine (à 48 heures d'intervalle) pendant trois semaines.
Dans la cinquième expérience, on a appliqué le CP en une dose unique de 200 microgrammes/0,1 ml par animal, administrée par voie intrapéritonéale en même temps ou trois jours après la greffe cellulaire.
Dans les sixième à neuvième expériences, on a appliqué, suivant le cas, le butyrate d'amino-acide basique, l'interféron et/ou le CP aux mêmes doses, au même rythme et aux mêmes moments que lorsque ces produits étaient appliqués seuls dans les expériences précédentes.
Ces histogrammes montrent, en fonction du temps (nombre de jours T), le nombre N d'animaux survivants et, parmi ces animaux survivants, le nombre d'animaux portant des tumeurs décelables.
Ainsi, le nombre d'animaux survivants est porté, pour un jour donné, en ordonnée sous la forme d'une colonne figurant le nombre d'animaux et à l'intérieur de laquelle on matérialise par des hachures le nombre d'animaux porteurs de tumeurs.

Assay [2] has as its system virus de l'encéphalomyocardite de la souris (EMC) de la souche Mengo. Briefly: Antiviral protection of mice against the lethal effect of 100 DL50 of EMC virus. As to conditions: for survie lorsqu'on administre aussi de l'interféron: given together with interféron; for survie relevée au moment où la mortalité cesse dans la série d'animaux témoins: propionate d'arginine 0,252 mg/g, hexanoate d'arginine 0,29 mg/g, virus-only controls 5 sur 30.
From the text: Dans ces expériences, on met en évidence l'activité antivirale contre l'effet léthal de 100 DL50 du virus de l'encéphalomyocardite.
Les animaux de laboratoire utilisés sont des souris du type "Swiss" provenant d'un élevage propre aux Inventeurs.
Le virus employé est celui de l'encéphalomyocar- dite de la souris (EMC) de la souche Mengo cultivée sur des cellules murines L 929.
Le titre des suspensions de virus est estimé par la "méthode des plages" en utilisant toujours des cellules murines L 929. On admet que 5 unités (UFP) formant des plages, correspondent à une dose léthale DL50.
Le virus est inoculé par voie intrapéritonéale.
On réalise également, à titre de comparaison, les expériences suivantes : • - prétraitement des animaux par le butyrate de sodium avant inoculation du virus EMC, • - traitement par le butyrate d'arginine ou de lysine simultanément à l'injection du virus.
Des groupes de souris témoin sont traités par le virus seul et le solvant (milieu isotonique) seul.
et on a administré pour chaque expérience 0,5 ml de ces solutions par souris de 25 g.
L'interféron a été administré à raison de 20.000 à 25.000 unités internationales par souris par voie intrapéritonéale sous un volume de 0,5 ml et l'immunostimulant, à savoir le corynébacterium parvum, souche Mérieux, a été injecté à l'animal par voie intrapéritonéale à raison de 200 µg/0,1 ml/souris.
L'action antivirale a été étudiée dans les mêmes conditions que plus haut.

Setting [3] is: 45 animals at start, butyrate de lysine 0,24 mg/g i.p. 3 times a week for 3 weeks.

For butyrate de lysine, in assay [1] (setting [3]), the “animaux restants au bout de 44 jours” value amounted to 2 and the “porteurs de tumeur parmi les animaux restants au bout de 44 jours” value turned out to be 1. The “animaux porteurs de tumeurs au 10e jour” value in assay [1] (butyrate 0,5 ml of 50 mM i.p. 3 times a week for 3 weeks (0,28 or 0,24 mg/g), interféron 20.000 à 50.000 U.I. 3 times a week for 3 weeks, CP single dose 200 microgrammes i.p.) worked out at 32 sur 45. Also, in assay [1] (same doses as E4, group sizes 45 to 75 animals, no control survives beyond day 28), the “animaux survivants après 100 jours d'observation” value is “un seul”. Also, in assay [2] (treatment given simultaneously with the injection of the virus), the effet protecteur result was “aucun effet protecteur”.

hexanoate d'arginine: in assay [2], the “survie lorsqu'on administre aussi de l'interféron” value is “considérablement augmentée” and the “survie relevée au moment où la mortalité cesse dans la série d'animaux témoins” value amounted to 11 sur 30.

For the substance propionate d'arginine, in assay [2], the “survie lorsqu'on administre aussi de l'interféron” value is given as “considérablement augmentée” and the “survie relevée au moment où la mortalité cesse dans la série d'animaux témoins” value is recorded as 18 sur 30.

Source of the values: patent publication EP0069659A1, “Medicine containing the reaction product of a carboxylic acid and a basic amino acid” (CHANY, Charles, priority 1981, dated 1983).
